Here are results for 28 compounds from ChEMBL document CHEMBL1142763, “Dibenzodioxocinones--a new class of CETP inhibitors” (Bioorg Med Chem Lett, 2005).

Where only a bound is given, the exact number is not on record here.

Broadly, the IC50 is the concentration that gives 50% inhibition. A lower IC50 goes with greater potency. In general, half-life refers to the time needed for the level to fall by half in the phase considered. Higher therefore signals slow decline.

The target in series [1] is T1, Cholesteryl ester transfer protein (Homo sapiens, UniProt P11597).
T1 sequence (P11597 whole entry): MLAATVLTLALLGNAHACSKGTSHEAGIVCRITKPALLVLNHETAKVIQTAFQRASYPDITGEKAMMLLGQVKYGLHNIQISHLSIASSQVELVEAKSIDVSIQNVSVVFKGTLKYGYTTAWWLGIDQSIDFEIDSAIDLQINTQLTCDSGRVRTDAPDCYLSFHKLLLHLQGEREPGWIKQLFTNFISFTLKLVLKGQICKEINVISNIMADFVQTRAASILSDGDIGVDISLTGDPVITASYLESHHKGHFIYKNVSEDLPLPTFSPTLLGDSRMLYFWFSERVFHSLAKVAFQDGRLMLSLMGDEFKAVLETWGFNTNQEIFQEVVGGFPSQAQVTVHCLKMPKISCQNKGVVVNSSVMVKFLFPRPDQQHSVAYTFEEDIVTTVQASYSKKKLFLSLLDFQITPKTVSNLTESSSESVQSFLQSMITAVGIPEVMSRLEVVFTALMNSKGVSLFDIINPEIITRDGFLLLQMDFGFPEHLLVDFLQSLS
The series can be described thus: Inhibitory concentration against Cholesterol ester transfer protein (CETP) in CETP fluorescence assay.

The nature of series [2]: (§1) Half life period […] determined in rat plasma. Type of series: ADME, cell-free.
A short description of series [3]: as §1. Type of series: ADME, organism-based.

Compound `CCc1c(C)c(Cl)c2c(c1OC(=O)C1(C)C3CCC1CC3)Oc1ccc([C@@H](O)CC(C)(C)C)c(OC)c1C(=O)O2` (some centres not stated) came in with a half-inhibitory concentration (IC50) in series [1] of 15 nM.
On the same count and under the same terms, next, `COc1c(C(O)CC2CCCCC2)ccc2c1C(=O)Oc1cc(C)cc(OCCC(C)C)c1O2` (racemic): more than 20000 nM; `COc1c(C(O)CC(C)C)ccc2c1C(=O)Oc1cc(C)cc(OCCC(C)C)c1O2` (racemic): 2000 nM.
Same read-out and setting: next, `COc1c([C@@H](O)CC(C)(C)C)ccc2c1C(=O)Oc1c(Cl)c(C)c(C)c(OC(=O)C3(C)C4CCC3CC4)c1O2` (some centres not stated): 30 nM.
In turn, `COc1c([C@@H](O)CC(C)C)ccc2c1C(=O)Oc1c(Cl)c(C)c(C)c(OC(=O)C3(C)C4CCC3CC4)c1O2` (some centres not stated) returned an IC50 in series [1] of 30 nM. In series [2], this compound showed a half-life of more than 3 h.
For `COc1c([C@@H](O)CC(C)C)ccc2c1C(=O)Oc1cc(C)cc(OS(=O)(=O)c3c(F)cc(F)cc3F)c1O2`, the IC50 in series [1] is 6000 nM.
On the same count and under the same terms, for `COc1c([C@@H](O)CC(C)C)ccc2c1C(=O)Oc1cc(C)cc(OC(=O)N3CC4CCC4C3)c1O2` (some centres not stated) the value was 400 nM; for `COc1c(C(O)CCC(C)C)ccc2c1C(=O)Oc1cc(C)cc(OCCC(C)C)c1O2` (racemic), more than 20000 nM.
`COc1c(C(O)CC2CC2)ccc2c1C(=O)Oc1cc(C)cc(OCCC(C)C)c1O2` (racemic): in series [1], the half-maximal inhibitory concentration (IC50) turned out to be 10000 nM.
`COc1c([C@@H](O)CC(C)C)ccc2c1C(=O)Oc1cc(C)cc(OC(=O)C3(C)C4CCC3CC4)c1O2` (some centres not stated) showed an IC50 in series [1] of 200 nM. The half-life in series [2] was 4.2 h.
`COc1c([C@@H](O)CC(C)C)ccc2c1C(=O)Oc1cc(C)cc(OC(=O)N(C(C)C)C(C)C)c1O2` yielded an IC50 in series [1] of 700 nM. This compound came in with a half-life in series [3] of more than 5 h.
`COc1c([C@@H](O)CC(C)C)ccc2c1C(=O)Oc1cc(C)cc(OCC3CCCC3)c1O2` yielded an IC50 in series [1] of 1500 nM.
Same read-out and setting: for `COc1c(C(O)CC(C)(C)C)ccc2c1C(=O)Oc1cc(C)cc(OCCC(C)C)c1O2` (racemic) the value was 1500 nM.
Same read-out and setting: for `CCCCCS(=O)(=O)Oc1cc(C)cc2c1Oc1ccc([C@@H](O)CC(C)C)c(OC)c1C(=O)O2` the value was 4000 nM; for `CCN(CC)C(=O)Oc1cc(C)cc2c1Oc1ccc([C@@H](O)CC(C)C)c(OC)c1C(=O)O2`, 3000 nM.
`COc1c([C@@H](O)CC(C)C)ccc2c1C(=O)Oc1cc(C)cc(OC(=O)C3CC4C=CC3C4)c1O2` (some centres not stated) yielded an IC50 in series [1] of 200 nM. The compound also displayed a half-life in series [2] of less than 0.1 h.
Regarding `COc1c([C@@H](O)CC(C)C)ccc2c1C(=O)Oc1cc(C)cc(OS(=O)(=O)C(C)C)c1O2`, the concentration for half-maximal inhibition (IC50) in series [1] turned out to be 700 nM.
Compound `COc1c([C@@H](O)CC(C)C)ccc2c1C(=O)Oc1c(Cl)c(C)c(Br)c(OC(=O)C3(C)C4CCC3CC4)c1O2` (some centres not stated) returned an IC50 in series [1] of 60 nM. In series [2], this compound came in with a half-life of more than 3 h.
Take `COc1c(C(O)C(C)C)ccc2c1C(=O)Oc1cc(C)cc(OCCC(C)C)c1O2` (racemic): in series [1], it took 4000 nM to reach half-maximal inhibition (IC50).
In the case of `COc1c([C@@H](O)CC(C)C)ccc2c1C(=O)Oc1cc(C)cc(OC(=O)N3CCCC3)c1O2`, inhibition in series [1] was half-maximal at 800 nM (IC50). The half-life in series [3] was 2.9 h.
Consider `COc1c([C@@H](O)CC(C)C)ccc2c1C(=O)Oc1cc(C)cc(OCc3ccccc3)c1O2`, for which it took 13000 nM to reach half-maximal inhibition in series [1] (IC50).
With `COc1c([C@@H](O)CC(C)C)ccc2c1C(=O)Oc1cc(C)cc(O)c1O2`, the IC50 in series [1] is more than 20000 nM.
With `COc1c([C@@H](O)CC(C)C)ccc2c1C(=O)Oc1cc(C)cc(OC(=O)C3(C)CC4C=CC3C4)c1O2` (some centres not stated), in series [1], the IC50 turned out to be 200 nM. Further, the half-life in series [2] is 0.64 h.
In series [1], `COc1c([C@@H](O)CC(C)C)ccc2c1C(=O)Oc1cc(C)cc(OC(=O)C(C)(C)C)c1O2` showed a 50% inhibitory concentration (IC50) of 800 nM. The same compound returned a half-life in series [3] of less than 0.1 h.
As for `COc1c([C@@H](O)CC(C)C)ccc2c1C(=O)Oc1cc(C)cc(OC(=O)[N+]34CCC(CC3)C4)c1O2`, in series [1], it took 200 nM to reach half-maximal inhibition (IC50). Besides, the half-life in series [3] is 3.9 h.
`COc1c([C@@H](O)CC(C)(C)C)ccc2c1C(=O)Oc1c(Cl)c(C)c(Br)c(OC(=O)C3(C)C4CCC3CC4)c1O2` (some centres not stated) yielded an IC50 in series [1] of 32 nM.
In series [1], `COc1c([C@@H](O)CC(C)C)ccc2c1C(=O)Oc1cc(C)cc(OC(=O)C3CCCC3)c1O2` had an IC50 of 600 nM.
`COc1c([C@@H](O)CC(C)C)ccc2c1C(=O)Oc1cc(C)cc(OS(=O)(=O)C(F)(F)F)c1O2`: in series [1], half-maximal inhibition (IC50) required 10000 nM.
